# Measurements reported in ChEMBL document CHEMBL1152072, “Synthesis and structure-activity relationships of novel antiseptics” (1997).
# Legend:
# Type in all cases: functional
# [1] = tested on: Staphylococcus aureus; test: Antibacterial activity against Staphylococcus aureus after 3 mins.
# [2] = tested on: Pseudomonas aeruginosa; test: Antibacterial activity against Pseudomonas aeruginosa ATCC 10145 after 3 mins.
# [3] = tested on: Escherichia coli; test: Antibacterial activity against Escherichia coil NIHJ JC-2 after 30 seconds
# [4] = tested on: Staphylococcus aureus; test: Antibacterial activity against Staphylococcus aureus FDA 209P after 30 seconds
# [5] = tested on: Burkholderia cepacia; test: Antibacterial activity against Burkholderia cepacia 10 after 3 mins.
# [6] = tested on: Pseudomonas aeruginosa; test: Antibacterial activity against Pseudomonas aeruginosa ATCC 10145 after 30 seconds
# [7] = tested on: Serratia marcescens; test: Antibacterial activity against Serratia marcescens IFO 12648 after 30 seconds
# [8] = tested on: Enterococcus faecalis; test: Antibacterial activity against Enterococcus faecalis IFO 12580 after 30 seconds
# [9] = tested on: Escherichia coli; test: Antibacterial activity against Escherichia coli after 3 mins.
# [10] = tested on: Staphylococcus epidermidis; test: Antibacterial activity against Staphylococcus epidermidis ATCC 12228 after 30 seconds
# [11] = tested on: Staphylococcus aureus; test: Antibacterial activity against methicillin-resistant Staphylococcus aureus 57 after 3 mins.
# [12] = tested on: Serratia marcescens; test: Antibacterial activity against Serratia marcescens IFO 12648,after 30 seconds
# [13] = tested on: Escherichia coli; test: Antibacterial activity against Escherichia coli NIHJ JC-2,after 30 seconds
# [14] = tested on: Staphylococcus aureus; test: Antibacterial activity against Staphylococcus aureus after 30 seconds
# [15] = tested on: Enterococcus faecalis; test: Antibacterial activity against Enterococcus faecalis IFO 12580
Compound,Activity [1],Activity [2],Activity [5],Activity [9],also measured
CCCCCCCC/N=C(N)/N=C(\N)NCc1ccc(Cl)c(Cl)c1.Cl,<=10 ug ml-1,<=10 ug ml-1,<=10 ug ml-1,<=10 ug ml-1,Activity [3]: 20 µg/mL; Activity [4]: 20 µg/mL; Activity [6]: 10 µg/mL; Activity [7]: 20 µg/mL; Activity [8]: 10 µg/mL; Activity [10]: 5 µg/mL
CCCCCCCC/N=C(N)/N=C(\N)Nc1ccc(Cl)c(Cl)c1.Cl,50 µg/mL,50 µg/mL,,50 µg/mL,
CCCCCCCCCC/N=C(N)/N=C(\N)Nc1ccc(Cl)c(Cl)c1.Cl,100 µg/mL,100 µg/mL,100 µg/mL,20 µg/mL,
Cl.N=C(NCc1ccc(Cl)c(Cl)c1)NC(=N)Nc1ccc(Br)cc1,20 µg/mL,20 µg/mL,20 µg/mL,<=10 ug ml-1,
CCCCCC/N=C(N)/N=C(\N)NCc1ccc(Cl)c(Cl)c1.Cl,50 µg/mL,50 µg/mL,100 µg/mL,50 µg/mL,
CCCCCC/N=C(N)/N=C(\N)Nc1ccc(Cl)cc1.Cl,500 µg/mL,20 µg/mL,100 µg/mL,100 µg/mL,
Cl.N=C(NCc1ccc(Cl)c(Cl)c1)NC(=N)Nc1ccc(Cl)c(Cl)c1Cl,<=10 ug ml-1,<=10 ug ml-1,<=10 ug ml-1,<=10 ug ml-1,
CCCCCC/N=C(N)/N=C(\N)NCc1ccc(Cl)cc1.Cl,>100 µg/mL,50 µg/mL,100 µg/mL,100 µg/mL,
Cl.N=C(NCc1ccc(Cl)c(Cl)c1)NC(=N)Nc1ccc(I)cc1,20 µg/mL,<=10 ug ml-1,<=10 ug ml-1,<=10 ug ml-1,
Cl.N=C(NCc1ccc(Cl)c(Cl)c1)NC(=N)Nc1ccc(Cl)c(Cl)c1,50 µg/mL,10 µg/mL,,10 µg/mL,
CCCCCC/N=C(N)/N=C(\N)Nc1ccc(Cl)c(Cl)c1.Cl,100 µg/mL,20 µg/mL,20 µg/mL,20 µg/mL,
Cc1ccc(NC(=N)/N=C(\N)NCc2ccc(Cl)c(Cl)c2)cc1C.Cl,20 µg/mL,<=10 ug ml-1,20 µg/mL,<=10 ug ml-1,
CCCCCCCCCC/N=C(N)/N=C(\N)NCc1ccc(Cl)c(Cl)c1.Cl,50 µg/mL,100 µg/mL,100 µg/mL,<=10 ug ml-1,
Cl.N=C(NCc1ccc(Cl)c(Cl)c1)NC(=N)Nc1ccc(Cl)cc1Cl,20 µg/mL,<=10 ug ml-1,<=10 ug ml-1,<=10 ug ml-1,
Cl.N=C(NCc1ccc(Cl)c(Cl)c1)NC(=N)Nc1ccc(Cl)cc1,50 µg/mL,50 µg/mL,,50 µg/mL,Activity [11]: 100 µg/mL
CCCCCCCCCCCC/N=C(N)/N=C(\N)NCc1ccc(Cl)c(Cl)c1.Cl,100 µg/mL,100 µg/mL,>500 µg/mL,20 µg/mL,
CCCCCCCCCCCC/N=C(N)/N=C(\N)Nc1ccc(Cl)c(Cl)c1.Cl,100 µg/mL,20 µg/mL,>500 µg/mL,20 µg/mL,
N=C(NCCCCCCNC(=N)NC(=N)Nc1ccc(Cl)cc1)NC(=N)Nc1ccc(Cl)cc1 [CHLORHEXIDINE],100 µg/mL,100 µg/mL,>500 µg/mL,20 µg/mL,Activity [12]: 40 µg/mL; Activity [13]: 80 µg/mL; Activity [6]: 160 µg/mL; Activity [14]: >160 µg/mL; Activity [15]: >160 µg/mL; Activity [10]: 40 µg/mL
